Test results published in patent publication US20250243488A1, “METHODS OF MODULATING PROGRANULIN EXPRESSION USING ANTISENSE OLIGONUCLEOTIDES TARGETING REGULATORY RNAS” (Camp4 Therapeutics Corporation, priority 2022, published 2025).
Oligonucleotides are written 5' to 3', each unit as a sugar letter and its base; * is a phosphorothioate linkage, no mark a phosphodiester; rarer units and linkages stand in square brackets, end groups in braces. Plain capitals give the bases only. e = 2'-O-(2-methoxyethyl) (MOE); l = locked nucleic acid (LNA); [5mC] = 5-methylcytosine; d = 2'-deoxy (DNA)

Tested on: GRN mRNA
Assay: GRN mRNA qPCR in SK-N-AS cells transfected with ASOs
Format: cell-based, human
Details: SK-N-AS; for hGRN mRNA FC / 120 nM FC (GRN mRNA): 120 nM
How it was run: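 Fold change in GRN mRNA, by qPCR with GAPDH/PPIA housekeeping normalization, referenced to steric non-targeting control ASO(s) such as CO-1589. ASOs were transfected into SK-N-AS neuroblastoma cells in dose titrations (20 to 160 nM initially). Cells were harvested 48 hours post-transfection.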

[1] = Table 9, 48 hours post-transfection, normalized to CO-1589
[2] = Table 12, normalized to CO-1589
[3] = Table 13, normalized to CO-1589
[4] = Table 11, 48 hours, normalized to CO-1589
[5] = Table 10, 48 hours, normalized to CO-1589
[6] = Table 7, normalized to CO-1589 (sNTC1)
[7] = Table 3, normalized to CO-3772 and CO-1589 (sNTC1)

## CO-4642: ASO designed to target intergenic enhancers (eRNA) (antisense eG*eG*e[5mC]*eT*eG*e[5mC]*eA*eG*eA*eT*e[5mC]*eT*e[5mC]*eT*eA*eT*eA*eT*e[5mC]*eA)
[1]
  hGRN mRNA FC: 1.0 FC

## CO-4643: ASO designed to target intergenic enhancers (eRNA) (antisense e[5mC]*eG*eG*e[5mC]*eA*eT*eT*e[5mC]*e[5mC]*e[5mC]*eT*eG*eA*e[5mC]*e[5mC]*eT*eA*eT*e[5mC]*e[5mC])
[1]
  hGRN mRNA FC: 0.9 FC

## CO-6402: ASO based on parent ASO CO-3462 (antisense eG*eT*eA*eG*eG*lA*dG*dA*lA*dT*d[5mC]*dG*d[5mC]*lT*dT*dT*lG*eG*eG*eA*eG*e[5mC])
[2]
  30 nM FC (GRN mRNA): 1.5 FC
  60 nM FC (GRN mRNA): 1.6 FC
  120 nM FC (GRN mRNA): 1.8 FC

## CO-4621: ASO designed to target intergenic enhancers (eRNA) (antisense e[5mC]*eG*e[5mC]*eT*eG*e[5mC]*eT*eG*eT*eT*eT*eG*eG*eA*eA*e[5mC]*eG*eA*eG*eT)
[1]
  hGRN mRNA FC: 1.2 FC

## CO-6422: ASO based on parent ASOs CO-4363 and CO-4364 (eG*eG*eA*l[5mC]*eT*eT*eG*lG*eG*eA*eG*lT*eG*eG*eT*lG*eA*e[5mC]*eT*lG*eA*eA*e[5mC])
[3]
  30 nM FC (GRN mRNA): 1.9 FC
  60 nM FC (GRN mRNA): 2.0 FC
  120 nM FC (GRN mRNA): 2.1 FC

## CO-4630: ASO designed to target intergenic enhancers (eRNA) (antisense eG*eT*e[5mC]*eT*eT*e[5mC]*eA*eA*eG*eA*eA*e[5mC]*eT*eT*eT*eA*e[5mC]*e[5mC]*eG*eA)
[1]
  hGRN mRNA FC: 1.0 FC

## CO-6449: ASO designed to target an intragenic enhancer RNA (eRNA) (eG*eT*e[5mC]*e[5mC]*eA*eG*e[5mC]*eT*e[5mC]*eG*eG*eT*e[5mC]*eA*eT*eG*eT*eG*eT*e[5mC])
[4]
  hGRN mRNA FC: 1.1 FC

## CO-6389: ASO based on parent ASO CO-3462 (antisense eT*eA*eG*lG*eA*dG*dA*lA*dT*d[5mC]*dG*l[5mC]*dT*dT*dT*lG*eG*eG*eA*eG)
[2]
  30 nM FC (GRN mRNA): 1.0 FC
  60 nM FC (GRN mRNA): 1.0 FC
  120 nM FC (GRN mRNA): 2.1 FC

## CO-6453: ASO designed to target an intragenic enhancer RNA (eRNA) (eG*eA*eA*eA*eA*eA*eG*eT*eT*eT*e[5mC]*e[5mC]*eT*e[5mC]*e[5mC]*eA*eT*e[5mC]*e[5mC]*eT)
[4]
  hGRN mRNA FC: 0.9 FC

## CO-6381: ASO based on parent ASO CO-3462 (antisense eT*eG*eA*eT*e[5mC]*eA*eG*e[5mC]*eT*eT*eG*eG*eG*e[5mC]*eG*eA*e[5mC]*eT*eG*eA)
[2]
  30 nM FC (GRN mRNA): 0.8 FC
  60 nM FC (GRN mRNA): 0.7 FC
  120 nM FC (GRN mRNA): 1.0 FC

## CO-4610: ASO designed to target intergenic enhancers (eRNA) (antisense eG*eG*eA*e[5mC]*eA*eT*eG*e[5mC]*eT*eG*eG*eA*eA*eA*eG*eT*e[5mC]*eT*eT*eA)
[1]
  hGRN mRNA FC: 1.2 FC

## CO-4603: ASO designed to target intergenic enhancers (eRNA) (antisense e[5mC]*e[5mC]*eA*e[5mC]*eT*eT*e[5mC]*eG*e[5mC]*eG*eT*eT*eT*eA*eG*eA*eA*e[5mC]*eT*eT)
[1]
  hGRN mRNA FC: 1.3 FC

## CO-6415: ASO based on parent ASOs CO-4363 and CO-4364 (antisense eG*eG*eA*l[5mC]*eT*eT*lG*eG*eG*lA*eG*eT*lG*eG*eT*lG*eA*e[5mC]*lT*eG*eA)
[3]
  30 nM FC (GRN mRNA): 1.3 FC
  60 nM FC (GRN mRNA): 1.6 FC
  120 nM FC (GRN mRNA): 1.6 FC

## CO-4596: ASO designed to target intergenic enhancers (eRNA) (antisense e[5mC]*eA*eA*e[5mC]*eT*eA*eT*e[5mC]*eA*eG*eT*e[5mC]*eA*eA*eG*eG*eT*e[5mC]*eG*eG)
[1]
  hGRN mRNA FC: 1.0 FC

## CO-4609: ASO designed to target intergenic enhancers (eRNA) (antisense e[5mC]*e[5mC]*eA*eA*eT*eA*eA*eA*eG*e[5mC]*e[5mC]*eT*eT*eG*eG*eG*eT*eG*e[5mC]*e[5mC])
[1]
  hGRN mRNA FC: 1.2 FC

## CO-6428: ASO based on parent ASOs CO-4363 and CO-4364 (eG*eG*eG*eA*e[5mC]*eT*eT*eG*eG*eG*eA*eG*eT*eG*eG*eT*eG*eA*e[5mC]*eT*eG*eA*eA*e[5mC]*e[5mC]*eT)
[3]
  30 nM FC (GRN mRNA): 1.1 FC
  60 nM FC (GRN mRNA): 1.4 FC
  120 nM FC (GRN mRNA): 1.0 FC

## CO-6420: ASO based on parent ASOs CO-4363 and CO-4364 (eG*eG*lA*e[5mC]*eT*lT*eG*eG*lG*eA*eG*lT*eG*eG*lT*eG*eA*l[5mC]*eT*eG*lA*eA*e[5mC])
[3]
  30 nM FC (GRN mRNA): 1.4 FC
  60 nM FC (GRN mRNA): 2.7 FC
  120 nM FC (GRN mRNA): 2.2 FC

## CO-6412: ASO based on parent ASOs CO-4363 and CO-4364 (antisense eG*eG*eA*e[5mC]*eT*dT*dG*dG*dG*dA*dG*dT*dG*dG*dT*dG*eA*e[5mC]*eT*eG*eA)
[3]
  30 nM FC (GRN mRNA): 1.0 FC
  60 nM FC (GRN mRNA): 0.8 FC
  120 nM FC (GRN mRNA): 0.9 FC

## CO-4628: ASO designed to target intergenic enhancers (eRNA) (antisense eT*e[5mC]*e[5mC]*eA*eT*eA*e[5mC]*eA*eA*e[5mC]*eT*eG*e[5mC]*eA*eG*eA*eG*eT*eG*eG)
[1]
  hGRN mRNA FC: 1.0 FC

## CO-4631: ASO designed to target intergenic enhancers (eRNA) (antisense eA*e[5mC]*e[5mC]*eA*e[5mC]*eT*e[5mC]*eT*eG*e[5mC]*eA*eG*eT*eT*eG*eT*eA*eT*eG*eG)
3.75 nM to 120 nM, 48 hours
  hit identification (GRN mRNA dose escalation): initial hits
[1]
  hGRN mRNA FC: 1.1 FC
Table 10, 3.75 nM, 48 hours, normalized to CO-1589
  3.75 nM FC (GRN mRNA): 1.1 FC
[5]
  7.5 nM FC (GRN mRNA): 1.1 FC
  30 nM FC (GRN mRNA): 1.1 FC
  60 nM FC (GRN mRNA): 1.1 FC
  120 nM FC (GRN mRNA): 1.3 FC
Table 10, 15 nM, 48 hours, normalized to CO-1589
  15 nM FC (GRN mRNA): 1.2 FC

## CO-4599: ASO designed to target intergenic enhancers (eRNA) (antisense eG*eG*e[5mC]*e[5mC]*eA*eA*e[5mC]*eT*eA*eT*e[5mC]*eA*eG*e[5mC]*eT*eT*eT*e[5mC]*e[5mC]*e[5mC])
[1]
  hGRN mRNA FC: 1.0 FC

## CO-5266: CO-3423 with additional LNA tiling and PO bond modifications (antisense GGACTTGGGAGTGGTGACTG; 2'-MOE, mixed PS/PO, 5-methylcytosine; listed as RNA; modified_base 1..7: mod_base = OTHER; note = Phosphorothioate linkage; modified_base 17..20: mod_base = OTHER; modified_base 1..20: mod_base = OTHER; note = 2'-O-(2-methoxyethyl) ribonucleotide; modified_base 4)
[6]
  7.5 nM FC (GRN mRNA): 1.0 FC
  30 nM FC (GRN mRNA): 1.2 FC
  60 nM FC (GRN mRNA): 1.7 FC
  120 nM FC (GRN mRNA): 2.0 FC
Table 7, 13 nM, normalized to CO-1589 (sNTC1)
  13 nM FC (GRN mRNA): 1.0 FC
Table 7, 150 nM, normalized to CO-1589 (sNTC1)
  150 nM FC (GRN mRNA): 2.2 FC

## CO-4635: ASO designed to target intergenic enhancers (eRNA) (antisense eG*eT*eT*eT*eG*e[5mC]*eA*eA*eT*eT*e[5mC]*eT*e[5mC]*eA*eG*eA*e[5mC]*e[5mC]*eT*eG)
[1]
  hGRN mRNA FC: 1.0 FC

## CO-4357: LNA/PS modified ASO based on CO-3423 (antisense eG*eG*eA*e[5mC]*lT*eT*eG*eG*lG*eA*eG*eT*lG*eG*eT*eG*lA*e[5mC]*eT*eG)
[7]
  30 nM FC (GRN mRNA): 1.5 FC
  60 nM FC (GRN mRNA): 1.7 FC
  120 nM FC (GRN mRNA): 2.4 FC

## CO-6522: ASO based on parent ASO CO-3462 (antisense eT*eA*eG*eG*eA*eG*eA*eA*eT*e[5mC]*eG*e[5mC]eTeTeTeGeGeG*eA*eG)
[2]
  30 nM FC (GRN mRNA): 1.1 FC
  60 nM FC (GRN mRNA): 1.0 FC
  120 nM FC (GRN mRNA): 1.1 FC

## CO-6397: ASO based on parent ASO CO-3462 (antisense eT*eA*eG*eG*eA*lG*eA*eA*eT*e[5mC]*lG*e[5mC]*eT*eT*eT*lG*eG*eG*eA*eG)
[2]
  30 nM FC (GRN mRNA): 1.4 FC
  60 nM FC (GRN mRNA): 1.8 FC
  120 nM FC (GRN mRNA): 1.8 FC

## CO-4641: ASO designed to target intergenic enhancers (eRNA) (antisense e[5mC]*eG*eT*eT*e[5mC]*e[5mC]*eA*eA*eA*e[5mC]*eA*eG*e[5mC]*eA*eG*e[5mC]*eG*eT*eT*eA)
[1]
  hGRN mRNA FC: 0.9 FC

## CO-6521: ASO based on parent ASO CO-3462 (antisense eT*eA*eG*eG*eA*eG*eA*eA*eT*e[5mC]eGe[5mC]eTeTeTeGeGeG*eA*eG)
[2]
  30 nM FC (GRN mRNA): 1.1 FC
  60 nM FC (GRN mRNA): 1.2 FC
  120 nM FC (GRN mRNA): 1.1 FC
